{"source": "BindingDB's records for doi:10.1021/jm030336u", "about": "(University of Tennessee At Memphis, 2004)", "target": "T1, Androgen receptor (Rattus norvegicus, UniProt P15207)", "T1 sequence (P15207 whole entry)": "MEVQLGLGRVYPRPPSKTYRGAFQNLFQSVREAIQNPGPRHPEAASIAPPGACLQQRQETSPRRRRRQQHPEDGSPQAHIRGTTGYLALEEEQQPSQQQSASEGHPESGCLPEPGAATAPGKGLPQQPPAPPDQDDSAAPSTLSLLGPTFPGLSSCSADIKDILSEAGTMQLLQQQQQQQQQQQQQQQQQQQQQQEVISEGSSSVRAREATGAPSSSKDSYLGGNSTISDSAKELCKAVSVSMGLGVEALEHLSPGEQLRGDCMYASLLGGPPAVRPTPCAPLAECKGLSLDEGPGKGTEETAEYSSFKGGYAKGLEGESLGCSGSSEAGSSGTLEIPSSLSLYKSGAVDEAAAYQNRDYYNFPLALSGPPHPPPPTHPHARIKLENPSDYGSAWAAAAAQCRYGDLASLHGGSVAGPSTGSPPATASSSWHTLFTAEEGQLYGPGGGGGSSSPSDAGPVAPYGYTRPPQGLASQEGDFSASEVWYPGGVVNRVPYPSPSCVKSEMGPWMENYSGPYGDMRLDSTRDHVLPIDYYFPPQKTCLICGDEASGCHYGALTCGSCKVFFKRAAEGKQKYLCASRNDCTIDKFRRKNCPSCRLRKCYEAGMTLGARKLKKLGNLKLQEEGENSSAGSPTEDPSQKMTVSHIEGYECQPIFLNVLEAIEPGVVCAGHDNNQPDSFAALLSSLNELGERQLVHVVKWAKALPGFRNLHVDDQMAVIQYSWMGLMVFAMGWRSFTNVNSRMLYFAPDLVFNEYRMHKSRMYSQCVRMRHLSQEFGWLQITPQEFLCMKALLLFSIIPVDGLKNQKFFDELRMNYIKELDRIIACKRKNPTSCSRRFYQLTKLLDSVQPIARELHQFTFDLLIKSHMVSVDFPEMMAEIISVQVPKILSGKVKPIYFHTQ", "experiment": "Competitive Radioligand Displacement Assay", "conditions": "pH 7.4; 4 °C"}
{"smiles": "CC(=O)Nc1ccc(SC[C@](C)(O)C(=O)Nc2ccc([N+](=O)[O-])c(C(F)(F)F)c2)cc1", "note": "[(2R)-3-[(4-acetamidophenyl)sulfanyl]-2-hydroxy-2-methyl-N-[4-nitro-3-(trifluoromethyl)phenyl]propanamide]", "values": [{"measurement": "Ki", "result": 4.9, "unit": "nM"}]}
{"smiles": "C[C@](O)(COc1ccc(I)cc1)C(=O)Nc1ccc([N+](=O)[O-])c(C(F)(F)F)c1", "note": "[(2S)-2-hydroxy-3-(4-iodophenoxy)-2-methyl-N-[4-nitro-3-(trifluoromethyl)phenyl]propanamide]", "values": [{"measurement": "Ki", "result": 30, "unit": "nM"}]}
{"smiles": "CC(O)(COc1ccc([N-]C#[S+])cc1)C(=O)Nc1ccc([N+](=O)[O-])c(C(F)(F)F)c1", "note": "[(2S)-2-hydroxy-3-(4-isothiocyanatophenoxy)-2-methyl-N-[4-nitro-3-(trifluoromethyl)phenyl]propanamide]", "values": [{"measurement": "Ki", "result": 4.62, "unit": "nM"}]}
{"smiles": "C[C@](O)(COc1ccc(Br)cc1)C(=O)Nc1ccc([N+](=O)[O-])c(C(F)(F)F)c1", "note": "[(2S)-3-(4-bromophenoxy)-2-hydroxy-2-methyl-N-[4-nitro-3-(trifluoromethyl)phenyl]propanamide]", "values": [{"measurement": "Ki", "result": 11.6, "unit": "nM"}]}
